Assay results reported in patent publication US7365053B2, “Selective N-acylation of A82846 glygopeptides analogs” (priority 2000, dated 2008).
In brackets after ≈: the same amount, converted by molar mass.

Legend:
[1] = tested on: vancomycin-resistant enterococci; assay: In vitro activity against enterococci, broth microdilution; type: cell-based, Enterococcus faecium and Enterococcus faecalis; conditions: representative vancomycin-resistant enterococci (E. faecium and E. faecalis); BHI medium
Method: (§1) The compounds of the present invention have in vitro activity against Gram-positive pathogenic bacteria. The antibacterial activity of the present compounds is illustrated in Tables III and IV. The minimal inhibitory concentrations (MICs) were determined using a standard broth micro-dilution assay. Table IV presents a comparison of the activity of illustrative compounds against representative vancomycin-resistant and vancomycin-sensitive enterococci (Enterococcus faecium and Enterococcus faecalis), mean geometric MIC (mcg/mL), as determined by the standard broth microdilution assay.
(§2) Assays for antimicrobial activity were performed using microbroth susceptibility testing methods as described by the NCCLS (National Committee for Clinical Laboratories Standards. 1990. Approved standard M7-A2. Methods for dilution antimicrobial susceptibility testing for bacteria that grow aerobically, 2 ed., Villanova Pa.). Brain-heart infusion medium (BHI) was used for testing of enterococci, and NCCLS recommendations for medium were followed for other bacteria.

[2] = tested on: vancomycin-sensitive enterococci; assay: as above; type: cell-based, Enterococcus faecium and Enterococcus faecalis; conditions: representative vancomycin-sensitive enterococci (E. faecium and E. faecalis); BHI medium
Method: as §1, §2

[3] = tested on: Enterococcus faecalis 2041; assay: Broth micro-dilution MIC; type: cell-based; conditions: BHI medium
Method: as §1, §2

Escherichia coli EC14 = assay: Broth micro-dilution MIC; type: cell-based
Method: as §1, §2

[4] = tested on: Staphylococcus aureus SA1199; assay: Broth micro-dilution MIC; type: cell-based
Method: as §1, §2

[5] = tested on: Staphylococcus aureus SA1199B; assay: Broth micro-dilution MIC; type: cell-based
Method: as §1, §2

[6] = tested on: Enterococcus faecium 180-1; assay: Broth micro-dilution MIC; type: cell-based; conditions: BHI medium
Method: as §1, §2

Enterococcus faecium 180 = assay: Broth micro-dilution MIC; type: cell-based; conditions: BHI medium
Method: as §1, §2

[7] = tested on: Staphylococcus haemolyticus 105; assay: Broth micro-dilution MIC; type: cell-based
Method: as §1, §2

[8] = tested on: Streptococcus pneumoniae P1; assay: Broth micro-dilution MIC; type: cell-based
Method: as §1, §2

[9] = tested on: Staphylococcus aureus S13E; assay: Broth micro-dilution MIC; type: cell-based
Method: as §1, §2

[10] = tested on: Staphylococcus aureus X778; assay: Broth micro-dilution MIC; type: cell-based
Method: as §1, §2

[11] = tested on: Enterococcus gallinarum 245; assay: Broth micro-dilution MIC; type: cell-based; conditions: BHI medium
Method: as §1, §2

[12] = tested on: Staphylococcus aureus X400; assay: Broth micro-dilution MIC; type: cell-based
Method: as §1, §2

[13] = tested on: Staphylococcus epidermidis 270; assay: Broth micro-dilution MIC; type: cell-based
Method: as §1, §2

[14] = tested on: Staphylococcus aureus SA1199A; assay: Broth micro-dilution MIC; type: cell-based
Method: as §1, §2

[15] = tested on: Staphylococcus aureus 489; assay: Broth micro-dilution MIC; type: cell-based
Method: as §1, §2

[16] = tested on: Staphylococcus aureus 491; assay: Broth micro-dilution MIC; type: cell-based
Method: as §1, §2

[17] = tested on: Haemophilus influenzae RD; assay: Broth micro-dilution MIC; type: cell-based
Method: as §1, §2

[18] = tested on: Streptococcus pyogenes C203; assay: Broth micro-dilution MIC; type: cell-based
Method: as §1, §2

[19] = tested on: Staphylococcus haemolyticus 415; assay: Broth micro-dilution MIC; type: cell-based
Method: as §1, §2

[20] = tested on: Enterococcus faecalis 276; assay: Broth micro-dilution MIC; type: cell-based; conditions: BHI medium
Method: as §1, §2

[21] = tested on: Staphylococcus aureus 446; assay: Broth micro-dilution MIC; type: cell-based
Method: as §1, §2

[22] = tested on: Staphylococcus aureus 447; assay: Broth micro-dilution MIC; type: cell-based
Method: as §1, §2

Structure (SMILES) | Mean geometric MIC, Vancomycin Resistant Strains [1] [mg/L] | Mean geometric MIC, Vancomycin Sensitive Strains [2] [mg/L] | MIC [3] | MIC (Escherichia coli EC14) [mg/L] | MIC [4] | MIC [5] | MIC [6] | MIC (Enterococcus faecium 180) | MIC [7] | MIC [8] | MIC [9] | MIC [10] [mg/L] | MIC [11] [mg/L] | MIC [12] [mg/L] | MIC [13] | MIC [14] | MIC [15] | MIC [16] | MIC [17] [mg/L] | MIC [18] | also measured
CNC(CC(C)C)C(=O)NC1C(=O)NC(CC(N)=O)C(=O)NC2C(=O)NC3C(=O)NC(C(=O)NC(C(=O)O)c4cc(O)cc(O)c4-c4cc3ccc4O)C(OC3CC(C)(N)C(O)C(C)O3)c3ccc(c(Cl)c3)Oc3cc2cc(c3OC2OC(CO)C(O)C(O)C2OC2CC(C)(NC(=O)c3ccc(-c4ccc(Cl)cc4)cc3)C(O)C(C)O2)Oc2ccc(cc2Cl)C1O (stereo not drawn) [Example 4] | 3.4 | 0.093 | ≦.06 μg/ml | >64 | 0.5 mg/L (≈ 0.277 µM) | 0.5 mg/L (≈ 0.277 µM) | ≦.06 μg/ml | ≦.06 μg/ml | 1 mg/L (≈ 0.553 µM) | 0.125 mg/L (≈ 0.0692 µM) | 0.5 mg/L (≈ 0.277 µM) | 0.25 (≈ 0.138 µM) | 4 (≈ 2.21 µM) | 0.25 (≈ 0.138 µM) | 2 mg/L (≈ 1.11 µM) | 0.25 mg/L (≈ 0.138 µM) | 0.25 mg/L (≈ 0.138 µM) | 0.5 mg/L (≈ 0.277 µM) | 0.25 (≈ 0.138 µM) | 0.125 mg/L (≈ 0.0692 µM) | MIC [19]: 4 mg/L (≈ 2.21 µM); MIC [20]: 0.125 mg/L (≈ 0.0692 µM); MIC [21]: 1 mg/L (≈ 0.553 µM); MIC [22]: 4 mg/L (≈ 2.21 µM)
CCCCCCCCOc1ccc(C(=O)NC2(C)CC(OC3c4ccc(c(Cl)c4)Oc4cc5cc(c4OC4OC(CO)C(O)C(O)C4OC4CC(C)(N)C(O)C(C)O4)Oc4ccc(cc4Cl)C(O)C(NC(=O)C(CC(C)C)NC)C(=O)NC(CC(N)=O)C(=O)NC5C(=O)NC4C(=O)NC3C(=O)NC(C(=O)O)c3cc(O)cc(O)c3-c3cc4ccc3O)OC(C)C2O)cc1 (stereo not drawn) [Example 7] | 6.7 | 0.06 | ≦.06 μg/ml | >64 | ≦.06 μg/ml | ≦.06 μg/ml | ≦.06 μg/ml | 0.5 mg/L (≈ 0.274 µM) | ≦.06 μg/ml | ≦.06 μg/ml | ≦.06 μg/ml | 0.125 (≈ 0.0685 µM) | 8 (≈ 4.38 µM) | 0.125 (≈ 0.0685 µM) | ≦.06 μg/ml | ≦.06 μg/ml | ≦.06 μg/ml | ≦.06 μg/ml | >64 | ≦.06 μg/ml | MIC [19]: 8 mg/L (≈ 4.38 µM); MIC [20]: ≦.06 μg/ml; MIC [21]: ≦.06 μg/ml; MIC [22]: 0.125 mg/L (≈ 0.0685 µM)
CCCCCCCCOc1ccc(C(=O)NC2(C)CC(OC3C(Oc4c5cc6cc4Oc4ccc(cc4Cl)C(OC4CC(C)(N)C(O)C(C)O4)C4NC(=O)C(NC(=O)C6NC(=O)C(CC(N)=O)NC(=O)C(NC(=O)C(CC(C)C)NC)C(O)c6ccc(c(Cl)c6)O5)c5ccc(O)c(c5)-c5c(O)cc(O)cc5C(C(=O)O)NC4=O)OC(CO)C(O)C3O)OC(C)C2O)cc1 (stereo not drawn) [Example 6] | 11.3 | 1.2 | 0.25 mg/L (≈ 0.137 µM) | >64 | 4 mg/L (≈ 2.19 µM) | 2 mg/L (≈ 1.1 µM) | 0.125 mg/L (≈ 0.0685 µM) | 0.25 mg/L (≈ 0.137 µM) | 0.5 mg/L (≈ 0.274 µM) | 0.25 mg/L (≈ 0.137 µM) | 8 mg/L (≈ 4.38 µM) | 2 (≈ 1.1 µM) | 8 (≈ 4.38 µM) | 4 (≈ 2.19 µM) | 8 mg/L (≈ 4.38 µM) | 0.25 mg/L (≈ 0.137 µM) | 1 mg/L (≈ 0.548 µM) | 2 mg/L (≈ 1.1 µM) | >64 | 0.125 mg/L (≈ 0.0685 µM) | MIC [19]: 8 mg/L (≈ 4.38 µM); MIC [20]: 1 mg/L (≈ 0.548 µM); MIC [21]: 2 mg/L (≈ 1.1 µM); MIC [22]: 8 mg/L (≈ 4.38 µM)
CNC(CC(C)C)C(=O)NC1C(=O)NC(CC(N)=O)C(=O)NC2C(=O)NC3C(=O)NC(C(=O)NC(C(=O)O)c4cc(O)cc(O)c4-c4cc3ccc4O)C(OC3CC(C)(NC(=O)c4ccc(-c5ccccc5)cc4)C(O)C(C)O3)c3ccc(c(Cl)c3)Oc3cc2cc(c3OC2OC(CO)C(O)C(O)C2OC2CC(C)(N)C(O)C(C)O2)Oc2ccc(cc2Cl)C1O (stereo not drawn) [Example 2] | >25 | 0.38 | 1 mg/L (≈ 0.564 µM) | >64 | 4 mg/L (≈ 2.26 µM) | 2 mg/L (≈ 1.13 µM) | 1 mg/L (≈ 0.564 µM) | 32 mg/L (≈ 18.1 µM) | 2 mg/L (≈ 1.13 µM) | ≦.06 μg/ml | 4 mg/L (≈ 2.26 µM) | 2 (≈ 1.13 µM) | >64 | 2 (≈ 1.13 µM) | 32 mg/L (≈ 18.1 µM) | 1 mg/L (≈ 0.564 µM) | 0.5 mg/L (≈ 0.282 µM) | 1 mg/L (≈ 0.564 µM) | >64 | ≦.06 μg/ml | MIC [19]: >64 mg/L; MIC [20]: 1 mg/L (≈ 0.564 µM); MIC [21]: 8 mg/L (≈ 4.51 µM); MIC [22]: 32 mg/L (≈ 18.1 µM)
CC(C)CC(C(=O)NC1C(=O)NC(CC(N)=O)C(=O)NC2C(=O)NC3C(=O)NC(C(=O)NC(C(=O)O)c4cc(O)cc(O)c4-c4cc3ccc4O)C(OC3CC(C)(N)C(O)C(C)O3)c3ccc(c(Cl)c3)Oc3cc2cc(c3OC2OC(CO)C(O)C(O)C2OC2CC(C)(N)C(O)C(C)O2)Oc2ccc(cc2Cl)C1O)N(C)C(=O)c1ccc(-c2ccccc2)cc1 (stereo not drawn) [Example 3] | 4 | 0.19 | ≦.06 μg/ml | >64 | 1 mg/L (≈ 0.564 µM) | 2 mg/L (≈ 1.13 µM) | ≦.06 μg/ml | 0.25 mg/L (≈ 0.141 µM) | 4 mg/L (≈ 2.26 µM) | ≦.06 μg/ml | 0.25 mg/L (≈ 0.141 µM) | 1 (≈ 0.564 µM) | 2 (≈ 1.13 µM) | 0.5 (≈ 0.282 µM) | 2 mg/L (≈ 1.13 µM) | 1 mg/L (≈ 0.564 µM) | 0.5 mg/L (≈ 0.282 µM) | 0.5 mg/L (≈ 0.282 µM) | >64 | ≦.06 μg/ml | MIC [19]: 2 mg/L (≈ 1.13 µM); MIC [20]: 0.125 mg/L (≈ 0.0705 µM); MIC [21]: 0.5 mg/L (≈ 0.282 µM); MIC [22]: 16 mg/L (≈ 9.03 µM)
